Reference: US20050124668A1, “Amino acids with affinity for the alpha2delta-protein” (priority 2003, published 2005)

What was measured:
[1] = target: T1, α2δ-subunit of a calcium channel (Sus scrofa, UniProt A0A287BIN3); experiment: radioligand binding assay using [3H]-gabapentin; conditions: α2δ-subunit derived from porcine brain tissue
T1 construct: the α2δ-subunit derived from porcine brain tissue was used; from tissue; host or cells: porcine brain tissue
Description: The ability of compounds of the present invention to bind to the α2δ-subunit of a calcium channel can be determined using the following binding assay.
The radioligand binding assay using [^3H]-gabapentin and the α2δ-subunit derived from porcine brain tissue was used. See Nicolas S. Gee et al., “The novel anticonvulsant drug, gabapentin (Neurontin), binds to the α2 subunit of a calcium channel,” J. Biol. Chem. 271 (10):5768-76 (1996). Compounds of the invention bind with nanomolar to micromolar affinity for the α2δ protein.

T1 sequence (A0A287BIN3 25-1109): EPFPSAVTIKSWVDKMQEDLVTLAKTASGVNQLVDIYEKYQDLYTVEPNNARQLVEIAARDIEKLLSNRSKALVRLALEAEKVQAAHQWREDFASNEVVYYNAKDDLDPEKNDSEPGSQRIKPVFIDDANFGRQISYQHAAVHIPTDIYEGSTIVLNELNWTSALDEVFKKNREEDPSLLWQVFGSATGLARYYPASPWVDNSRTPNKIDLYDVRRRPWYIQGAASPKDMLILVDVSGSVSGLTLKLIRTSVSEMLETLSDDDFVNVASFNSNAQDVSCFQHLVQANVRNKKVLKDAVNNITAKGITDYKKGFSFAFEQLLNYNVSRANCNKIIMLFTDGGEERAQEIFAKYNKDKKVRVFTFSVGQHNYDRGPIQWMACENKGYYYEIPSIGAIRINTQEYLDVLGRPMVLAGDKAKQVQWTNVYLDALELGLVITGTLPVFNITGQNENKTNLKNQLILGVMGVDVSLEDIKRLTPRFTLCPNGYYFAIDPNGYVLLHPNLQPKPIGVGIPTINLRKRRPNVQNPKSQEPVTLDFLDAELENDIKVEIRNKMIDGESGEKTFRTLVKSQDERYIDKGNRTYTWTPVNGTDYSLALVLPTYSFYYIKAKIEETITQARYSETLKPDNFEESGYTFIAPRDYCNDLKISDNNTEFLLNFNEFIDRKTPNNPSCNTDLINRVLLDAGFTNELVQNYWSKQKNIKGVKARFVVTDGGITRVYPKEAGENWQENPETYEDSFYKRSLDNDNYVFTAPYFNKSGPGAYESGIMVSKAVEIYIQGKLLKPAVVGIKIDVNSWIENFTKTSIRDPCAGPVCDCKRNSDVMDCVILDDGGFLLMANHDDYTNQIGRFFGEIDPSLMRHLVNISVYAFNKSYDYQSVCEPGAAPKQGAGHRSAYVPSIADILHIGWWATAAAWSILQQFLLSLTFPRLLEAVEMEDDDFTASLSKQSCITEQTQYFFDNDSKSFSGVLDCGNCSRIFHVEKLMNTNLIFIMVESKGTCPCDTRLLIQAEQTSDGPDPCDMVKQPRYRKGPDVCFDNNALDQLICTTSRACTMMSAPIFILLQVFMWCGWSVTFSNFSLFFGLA

Row | melting point | SMILES | affinity to the α2δ protein [1]
1 | 215 to 217 °C | CC[C@H](C)C[C@](C)(N)CC(=O)O | –
2 | – | CCCCC(CC)CCC(CN)C(=O)O (stereo not shown) [2-aminomethyl-5-ethyl-nonanoic acid] | 75 nM
3 | – | CC[C@@H](C)C[C@](C)(N)CC(=O)O [(3S,5R)-3-amino-3,5-dimethyl-heptanoic acid] | 236 nM
4 | – | CCC(CC)C[C@](C)(N)CC(=O)O [(S)-3-amino-5-ethyl-3-methyl-heptanoic acid] | 149 nM
